According to ChEMBL document CHEMBL1201862, “PubChem BioAssay data set” (2004):
Calls of active or inactive are those of the source.

Experiments:
Cytochrome P450 2D6 = Cytochrome P450 2D6 (Homo sapiens, UniProt P10635);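 further: CYP2D6 member of a cytochrome P450 panel assay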
INS1 = assay: beta cell apoptosis inhibitors, cytokine rescue, dose response, luminescence, retest (AID 449756); assay type: functional, cell-based; conditions: Rattus norvegicus;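 further: cell death triggered by IL-1 beta plus TNF-alpha plus IFN-gamma mixture; protective hits raise ATP signal compared with cytokine alone wells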
Troponin, cardiac muscle = Troponin, cardiac muscle (Homo sapiens, UniProt P19429+P45379+P63316); assay: Fluorescence-based biochemical high throughput dose response assay for activators of the calcium sensitivity of cardiac Regulated Thin Filaments (RTF). [Related pubchem assays (depositor defined):AID493008, AID493018, AID504382, AID504383]; assay type: protein-complex assay
[1] = target: Dual specificity tyrosine-phosphorylation-regulated kinase 1A (Rattus norvegicus, UniProt Q63470); assay type: biochemical, Homo sapiens
[2] = target: DNA dC->dU-editing enzyme APOBEC-3G (Homo sapiens, UniProt Q9HC16); assay type: functional;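 further: Dose-response counterscreen measuring inhibition of APOBEC3G DNA deaminase activity, run while confirming APOBEC3A inhibitors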
[3] = target: T1, Short transient receptor potential channel 4 (Mus musculus, UniProt Q9QUQ5); assay: mouse TRPC4 channel activators, dose response, cell-based, HEK293 TRPC4/mu-opioid, Fluo-4 calcium (AID 434937); assay type: functional
T1 sequence (Q9QUQ5 whole entry): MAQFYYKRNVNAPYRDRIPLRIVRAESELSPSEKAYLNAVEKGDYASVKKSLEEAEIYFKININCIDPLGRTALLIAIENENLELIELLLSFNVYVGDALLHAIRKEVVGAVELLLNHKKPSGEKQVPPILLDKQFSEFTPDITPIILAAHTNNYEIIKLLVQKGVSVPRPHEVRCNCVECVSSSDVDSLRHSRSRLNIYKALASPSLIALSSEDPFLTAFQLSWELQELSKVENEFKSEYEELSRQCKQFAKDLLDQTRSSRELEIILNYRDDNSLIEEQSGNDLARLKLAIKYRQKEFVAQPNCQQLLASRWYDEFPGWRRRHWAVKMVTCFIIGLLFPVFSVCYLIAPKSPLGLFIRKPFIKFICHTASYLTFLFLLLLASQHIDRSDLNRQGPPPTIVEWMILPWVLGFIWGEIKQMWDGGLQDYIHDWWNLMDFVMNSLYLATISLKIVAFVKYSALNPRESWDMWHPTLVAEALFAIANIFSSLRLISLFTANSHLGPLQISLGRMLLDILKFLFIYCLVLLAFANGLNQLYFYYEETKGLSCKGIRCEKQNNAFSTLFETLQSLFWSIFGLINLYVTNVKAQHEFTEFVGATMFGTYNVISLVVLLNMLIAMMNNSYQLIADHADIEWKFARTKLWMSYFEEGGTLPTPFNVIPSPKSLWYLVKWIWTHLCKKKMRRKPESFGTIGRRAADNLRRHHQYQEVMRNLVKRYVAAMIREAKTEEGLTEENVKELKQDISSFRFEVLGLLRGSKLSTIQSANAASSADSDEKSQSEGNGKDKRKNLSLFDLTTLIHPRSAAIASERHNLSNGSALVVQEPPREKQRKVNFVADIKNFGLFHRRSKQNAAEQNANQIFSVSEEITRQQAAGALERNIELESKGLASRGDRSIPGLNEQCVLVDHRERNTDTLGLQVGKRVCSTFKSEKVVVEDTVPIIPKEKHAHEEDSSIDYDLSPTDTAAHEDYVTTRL

[4] = target: DNA dC->dU-editing enzyme APOBEC-3A (Homo sapiens, UniProt P31941); assay: Dose Response confirmation of small molecule APOBEC3A DNA Deaminase Inhibitors via a fluorescence-based single-stranded DNA deaminase assay. [Related pubchem assays (depositor defined):AID493011, AID493024]; assay type: functional
Protein skinhead-1 = target: T2, Protein skinhead-1 (Caenorhabditis elegans, UniProt P34707); assay type: functional
T2 sequence (P34707 whole entry): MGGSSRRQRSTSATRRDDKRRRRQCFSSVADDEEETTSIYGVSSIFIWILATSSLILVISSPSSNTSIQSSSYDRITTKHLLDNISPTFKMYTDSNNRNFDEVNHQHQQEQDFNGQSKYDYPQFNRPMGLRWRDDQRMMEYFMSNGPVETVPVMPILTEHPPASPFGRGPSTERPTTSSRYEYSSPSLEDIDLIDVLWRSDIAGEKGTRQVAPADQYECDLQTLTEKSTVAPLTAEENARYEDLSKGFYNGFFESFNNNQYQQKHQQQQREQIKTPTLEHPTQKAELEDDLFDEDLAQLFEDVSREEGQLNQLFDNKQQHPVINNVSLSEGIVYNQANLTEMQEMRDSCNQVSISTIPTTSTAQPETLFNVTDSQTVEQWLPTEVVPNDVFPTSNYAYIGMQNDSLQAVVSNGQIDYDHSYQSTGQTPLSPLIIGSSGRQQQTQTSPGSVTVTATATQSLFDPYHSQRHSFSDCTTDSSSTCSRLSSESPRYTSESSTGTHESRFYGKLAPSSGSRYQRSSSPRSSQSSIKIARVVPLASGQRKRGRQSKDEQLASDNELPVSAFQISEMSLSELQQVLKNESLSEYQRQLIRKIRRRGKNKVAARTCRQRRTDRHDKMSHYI

[5] = target: T3, Corticotropin-releasing factor receptor 2/Corticotropin-releasing factor-binding protein (Homo sapiens, UniProt P24387+Q13324); assay: activators of CRF receptor 2 with binding protein – uHTS hits, confirmation (AID 602473); assay type: functional; conditions: read-out: EC50_Mean
T3 sequence (Q13324 whole entry): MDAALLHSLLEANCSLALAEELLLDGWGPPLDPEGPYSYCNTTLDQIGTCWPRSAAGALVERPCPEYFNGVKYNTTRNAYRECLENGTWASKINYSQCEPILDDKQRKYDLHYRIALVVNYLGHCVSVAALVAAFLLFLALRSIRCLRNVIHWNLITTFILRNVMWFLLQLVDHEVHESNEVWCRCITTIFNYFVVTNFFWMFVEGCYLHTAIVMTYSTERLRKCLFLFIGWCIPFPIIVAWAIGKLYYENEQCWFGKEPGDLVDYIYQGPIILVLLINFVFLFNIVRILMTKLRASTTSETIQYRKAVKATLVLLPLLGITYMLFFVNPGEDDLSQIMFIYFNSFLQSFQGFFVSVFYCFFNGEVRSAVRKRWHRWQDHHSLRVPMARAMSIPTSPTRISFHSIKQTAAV
T3 sequence (P24387 whole entry): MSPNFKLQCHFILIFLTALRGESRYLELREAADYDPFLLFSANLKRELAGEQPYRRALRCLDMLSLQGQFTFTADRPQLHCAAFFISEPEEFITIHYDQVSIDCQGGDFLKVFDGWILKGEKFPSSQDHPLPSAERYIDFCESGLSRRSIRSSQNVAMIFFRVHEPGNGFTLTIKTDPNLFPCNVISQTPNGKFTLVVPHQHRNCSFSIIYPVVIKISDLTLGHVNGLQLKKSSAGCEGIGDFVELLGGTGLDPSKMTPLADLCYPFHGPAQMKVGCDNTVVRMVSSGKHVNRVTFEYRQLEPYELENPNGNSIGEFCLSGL

cells [6] = assay type: functional, cell-based
[7] = target: T4, Trace amine-associated receptor 1 (Homo sapiens, UniProt Q96RJ0); assay: Counterscreen for agonists of the human trace amine associated receptor 1 (hTAAR1): Fluorescence-based cell-based high throughput dose response assay to identify hTAAR1 agonist that also desensitize TAAR1 receptor response.; assay type: functional
T4 sequence (Q96RJ0 whole entry): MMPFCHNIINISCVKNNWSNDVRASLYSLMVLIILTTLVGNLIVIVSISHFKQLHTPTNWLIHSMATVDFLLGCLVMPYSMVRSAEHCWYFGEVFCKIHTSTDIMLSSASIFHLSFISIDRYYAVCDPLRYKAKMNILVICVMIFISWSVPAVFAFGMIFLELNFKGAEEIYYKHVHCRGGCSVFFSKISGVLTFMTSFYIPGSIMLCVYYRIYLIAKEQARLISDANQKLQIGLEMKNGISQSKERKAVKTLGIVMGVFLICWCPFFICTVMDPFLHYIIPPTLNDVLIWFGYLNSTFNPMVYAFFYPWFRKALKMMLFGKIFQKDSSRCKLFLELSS

cells [8] = assay type: functional, cell-based; remark: listed apart in the source
[9] = target: T4, Trace amine-associated receptor 1; assay: Fluorescence-based cell-based high throughput dose response assay to identify agonists of the human trace amine associated receptor 1 (TAAR1).; assay type: functional
Cytochrome P450 3A4 [10] = target: T5, Cytochrome P450 3A4 (Homo sapiens, UniProt P08684);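 further: CYP3A4 tested as one member of a cytochrome P450 panel screen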
[11] = Luminescence Cell-Based Dose Confirmation HTS to Identify Inhibitors of Platelet Dense Granule Release. [Related pubchem assays: 1663 (Primary HTS), 1678 (Summary of Project)]; assay type: functional
[12] = target: Luciferin 4-monooxygenase (Photinus pyralis, UniProt P08659); assay: firefly luciferase enzyme inhibitors, dose response, biochemical, luminescence (AID 1891)
Cytochrome P450 2C19 = Cytochrome P450 2C19 (Homo sapiens, UniProt P33261); assay: Cytochrome panel assay with activity outcomes. Panel member name: p450-cyp2c19 Compounds with AC50 equal or less than 10 uM are considered active; assay type: functional
Cytochrome P450 2C9 = Cytochrome P450 2C9 (Homo sapiens, UniProt P11712)
Cytochrome P450 1A2 = target: T6, Cytochrome P450 1A2 (Homo sapiens, UniProt P05177);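 further: PubChem cytochrome P450 panel assay, CYP1A2 panel member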
T6 sequence (P05177 whole entry): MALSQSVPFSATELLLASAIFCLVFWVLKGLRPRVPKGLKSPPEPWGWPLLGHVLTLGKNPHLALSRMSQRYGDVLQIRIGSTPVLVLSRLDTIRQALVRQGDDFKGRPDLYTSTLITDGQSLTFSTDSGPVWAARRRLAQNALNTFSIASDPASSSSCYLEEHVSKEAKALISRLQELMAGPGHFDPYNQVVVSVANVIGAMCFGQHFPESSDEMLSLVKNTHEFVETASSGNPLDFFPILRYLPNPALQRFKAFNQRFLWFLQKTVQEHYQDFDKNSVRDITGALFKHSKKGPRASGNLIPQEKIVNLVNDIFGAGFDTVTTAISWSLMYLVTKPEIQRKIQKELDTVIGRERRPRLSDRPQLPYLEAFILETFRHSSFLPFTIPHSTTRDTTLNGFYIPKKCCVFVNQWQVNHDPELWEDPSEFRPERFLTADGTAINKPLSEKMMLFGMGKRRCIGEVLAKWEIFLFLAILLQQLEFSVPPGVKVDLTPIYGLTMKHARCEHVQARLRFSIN

Escherichia coli [13] = assay: microbe, parasite or virus in culture
[14] = target: T1, Short transient receptor potential channel 4; assay: mouse TRPC4 channel inhibitors, dose response, cell-based, HEK293 TRPC4/mu-opioid, Fluo-4 calcium (AID 434942); assay type: functional;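 further: potency of inhibitors blocking the TRPC4 calcium response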
[15] = target: Delta-type opioid receptor (Homo sapiens, UniProt P41143); assay: Counterscreen for agonists of heterodimerization of the mu 1 (OPRM1) and delta 1 (OPRD1) opioid receptors: Luminescence-based cell-based high throughput dose response assay to identify agonists of OPRD1 homodimerization. [Related pubchem assays (depositor defined):AID504326, AID504355, AID504692, AID504904, AID504905]; assay type: functional
[16] = target: 5-hydroxytryptamine receptor 5A (Homo sapiens, UniProt P47898); assay: Counterscreen for agonists of OPRM1-OPRD1 heterodimerization: luminescence-based cell-based high throughput dose response assay to identify agonists of 5-hydroxytryptamine (serotonin) 5A receptor (HTR5A). [Related pubchem assays (depositor defined):AID504326, AID504355, AID504692, AID504904, AID504905]; assay type: functional
Mu-type opioid receptor = Mu-type opioid receptor (Homo sapiens, UniProt P35372); assay: Counterscreen for agonists of heterodimerization of the mu 1 (OPRM1) and delta 1 (OPRD1) opioid receptors: Luminescence-based cell-based high throughput dose response assay to identify agonists of OPRM1 homodimerization.; assay type: functional;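 further: U2OS cells expressing OPRM1 and beta-arrestin as split beta-galactosidase partners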
Cytochrome P450 3A4 [17] = target: T5, Cytochrome P450 3A4; remark: listed apart in the source
Escherichia coli [18] = assay: microbe, parasite or virus in culture; remark: listed apart in the source

Cytochrome P450 2D6, sequence (P10635 whole entry): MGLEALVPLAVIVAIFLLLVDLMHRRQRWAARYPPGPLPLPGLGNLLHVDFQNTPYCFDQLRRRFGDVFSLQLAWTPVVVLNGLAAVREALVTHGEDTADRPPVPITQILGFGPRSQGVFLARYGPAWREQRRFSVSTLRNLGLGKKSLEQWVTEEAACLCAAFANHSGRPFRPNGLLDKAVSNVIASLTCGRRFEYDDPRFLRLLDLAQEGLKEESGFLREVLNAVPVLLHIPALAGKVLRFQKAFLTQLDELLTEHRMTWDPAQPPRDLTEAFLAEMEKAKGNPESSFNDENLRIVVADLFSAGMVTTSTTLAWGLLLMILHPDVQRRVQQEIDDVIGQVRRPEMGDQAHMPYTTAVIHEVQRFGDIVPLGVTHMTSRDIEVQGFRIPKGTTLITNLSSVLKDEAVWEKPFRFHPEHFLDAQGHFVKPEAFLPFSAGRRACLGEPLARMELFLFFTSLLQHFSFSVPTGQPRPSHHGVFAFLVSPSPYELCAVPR
T5 sequence (P08684 whole entry): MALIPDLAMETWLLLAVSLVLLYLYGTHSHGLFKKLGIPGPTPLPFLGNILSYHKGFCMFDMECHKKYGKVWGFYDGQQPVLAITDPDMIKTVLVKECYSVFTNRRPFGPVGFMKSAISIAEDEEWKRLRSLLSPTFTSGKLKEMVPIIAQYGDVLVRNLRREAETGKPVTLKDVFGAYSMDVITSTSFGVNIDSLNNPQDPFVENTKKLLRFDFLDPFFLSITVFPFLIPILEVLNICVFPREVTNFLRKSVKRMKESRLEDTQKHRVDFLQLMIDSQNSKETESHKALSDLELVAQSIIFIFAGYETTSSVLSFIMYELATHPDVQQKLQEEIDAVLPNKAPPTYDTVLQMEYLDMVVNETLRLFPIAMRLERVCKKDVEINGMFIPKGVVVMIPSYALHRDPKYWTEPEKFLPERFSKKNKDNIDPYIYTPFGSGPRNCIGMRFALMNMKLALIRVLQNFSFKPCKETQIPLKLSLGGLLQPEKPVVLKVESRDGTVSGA
Delta-type opioid receptor, sequence (P41143 whole entry): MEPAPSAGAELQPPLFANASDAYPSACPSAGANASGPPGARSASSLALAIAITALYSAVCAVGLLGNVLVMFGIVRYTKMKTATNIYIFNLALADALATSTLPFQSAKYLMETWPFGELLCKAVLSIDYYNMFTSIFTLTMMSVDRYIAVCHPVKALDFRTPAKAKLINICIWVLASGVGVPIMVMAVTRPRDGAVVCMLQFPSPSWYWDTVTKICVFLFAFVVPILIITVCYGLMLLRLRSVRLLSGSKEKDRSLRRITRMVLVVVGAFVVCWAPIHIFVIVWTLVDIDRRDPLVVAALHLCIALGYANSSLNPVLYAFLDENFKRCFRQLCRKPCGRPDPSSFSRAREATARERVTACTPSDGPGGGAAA
5-hydroxytryptamine receptor 5A, sequence (P47898 whole entry): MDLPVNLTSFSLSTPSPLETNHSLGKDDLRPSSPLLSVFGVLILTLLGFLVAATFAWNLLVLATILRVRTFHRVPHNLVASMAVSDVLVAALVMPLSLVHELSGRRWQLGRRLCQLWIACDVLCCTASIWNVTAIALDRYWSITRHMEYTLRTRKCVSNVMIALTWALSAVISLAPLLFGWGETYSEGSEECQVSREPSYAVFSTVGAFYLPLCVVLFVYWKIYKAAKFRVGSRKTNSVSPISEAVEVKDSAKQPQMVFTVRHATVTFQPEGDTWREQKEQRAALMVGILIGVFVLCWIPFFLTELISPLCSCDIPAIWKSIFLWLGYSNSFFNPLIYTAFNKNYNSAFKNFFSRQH
DNA dC->dU-editing enzyme APOBEC-3G, sequence (Q9HC16 whole entry): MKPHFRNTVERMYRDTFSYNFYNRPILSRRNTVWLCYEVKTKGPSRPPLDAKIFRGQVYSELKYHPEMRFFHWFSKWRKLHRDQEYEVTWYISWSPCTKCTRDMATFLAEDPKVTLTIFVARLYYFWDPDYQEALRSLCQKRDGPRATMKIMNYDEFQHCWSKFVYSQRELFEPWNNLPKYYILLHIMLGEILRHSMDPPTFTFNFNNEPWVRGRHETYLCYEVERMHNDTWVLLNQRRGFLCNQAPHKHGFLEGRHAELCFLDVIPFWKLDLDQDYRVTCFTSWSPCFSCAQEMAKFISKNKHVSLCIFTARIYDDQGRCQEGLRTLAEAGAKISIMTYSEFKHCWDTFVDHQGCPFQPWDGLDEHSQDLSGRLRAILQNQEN
DNA dC->dU-editing enzyme APOBEC-3A, sequence (P31941 whole entry): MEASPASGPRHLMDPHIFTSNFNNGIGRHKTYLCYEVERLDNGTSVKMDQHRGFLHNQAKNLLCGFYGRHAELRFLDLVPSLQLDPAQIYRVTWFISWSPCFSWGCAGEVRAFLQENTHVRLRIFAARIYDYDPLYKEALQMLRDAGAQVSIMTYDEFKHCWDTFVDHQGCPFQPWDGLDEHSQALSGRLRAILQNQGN
Mu-type opioid receptor, sequence (P35372 whole entry): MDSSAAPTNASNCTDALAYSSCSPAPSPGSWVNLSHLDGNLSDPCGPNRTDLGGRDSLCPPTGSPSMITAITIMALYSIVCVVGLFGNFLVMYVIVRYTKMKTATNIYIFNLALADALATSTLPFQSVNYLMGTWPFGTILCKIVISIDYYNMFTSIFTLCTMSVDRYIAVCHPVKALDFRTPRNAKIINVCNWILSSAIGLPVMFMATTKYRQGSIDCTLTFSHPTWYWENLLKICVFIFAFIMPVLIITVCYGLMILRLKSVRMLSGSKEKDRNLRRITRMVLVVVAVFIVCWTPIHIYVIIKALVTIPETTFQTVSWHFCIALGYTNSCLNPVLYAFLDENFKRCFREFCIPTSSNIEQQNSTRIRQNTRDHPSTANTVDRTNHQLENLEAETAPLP
Luciferin 4-monooxygenase, sequence (P08659 whole entry): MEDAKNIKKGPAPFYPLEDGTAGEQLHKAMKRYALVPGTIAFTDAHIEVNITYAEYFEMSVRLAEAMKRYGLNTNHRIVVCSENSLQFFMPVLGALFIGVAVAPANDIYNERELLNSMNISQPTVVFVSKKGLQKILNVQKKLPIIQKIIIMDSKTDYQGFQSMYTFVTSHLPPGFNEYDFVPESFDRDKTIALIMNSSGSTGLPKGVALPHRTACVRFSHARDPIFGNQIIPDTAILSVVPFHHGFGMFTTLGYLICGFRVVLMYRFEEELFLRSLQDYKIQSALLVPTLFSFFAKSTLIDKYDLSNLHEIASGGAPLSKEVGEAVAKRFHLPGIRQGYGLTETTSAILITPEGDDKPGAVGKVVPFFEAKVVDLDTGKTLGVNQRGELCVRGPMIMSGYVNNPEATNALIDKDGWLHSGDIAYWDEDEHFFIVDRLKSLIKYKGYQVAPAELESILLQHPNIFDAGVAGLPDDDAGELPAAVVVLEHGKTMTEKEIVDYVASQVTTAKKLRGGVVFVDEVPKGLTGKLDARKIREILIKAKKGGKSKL
Cytochrome P450 2C19, sequence (P33261 whole entry): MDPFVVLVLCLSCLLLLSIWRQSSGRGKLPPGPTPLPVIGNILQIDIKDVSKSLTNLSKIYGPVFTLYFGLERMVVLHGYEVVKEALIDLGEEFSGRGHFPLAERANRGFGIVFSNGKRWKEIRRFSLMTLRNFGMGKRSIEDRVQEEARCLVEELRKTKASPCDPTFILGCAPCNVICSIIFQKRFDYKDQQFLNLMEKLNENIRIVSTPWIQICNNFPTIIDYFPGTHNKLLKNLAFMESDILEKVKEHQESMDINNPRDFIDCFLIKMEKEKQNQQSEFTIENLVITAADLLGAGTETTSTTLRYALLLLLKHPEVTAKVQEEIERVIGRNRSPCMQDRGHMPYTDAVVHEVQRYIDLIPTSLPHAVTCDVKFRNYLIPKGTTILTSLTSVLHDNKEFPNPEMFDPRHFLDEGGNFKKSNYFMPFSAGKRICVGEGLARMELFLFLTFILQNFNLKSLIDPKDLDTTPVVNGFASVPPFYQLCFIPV
Cytochrome P450 2C9, sequence (P11712 whole entry): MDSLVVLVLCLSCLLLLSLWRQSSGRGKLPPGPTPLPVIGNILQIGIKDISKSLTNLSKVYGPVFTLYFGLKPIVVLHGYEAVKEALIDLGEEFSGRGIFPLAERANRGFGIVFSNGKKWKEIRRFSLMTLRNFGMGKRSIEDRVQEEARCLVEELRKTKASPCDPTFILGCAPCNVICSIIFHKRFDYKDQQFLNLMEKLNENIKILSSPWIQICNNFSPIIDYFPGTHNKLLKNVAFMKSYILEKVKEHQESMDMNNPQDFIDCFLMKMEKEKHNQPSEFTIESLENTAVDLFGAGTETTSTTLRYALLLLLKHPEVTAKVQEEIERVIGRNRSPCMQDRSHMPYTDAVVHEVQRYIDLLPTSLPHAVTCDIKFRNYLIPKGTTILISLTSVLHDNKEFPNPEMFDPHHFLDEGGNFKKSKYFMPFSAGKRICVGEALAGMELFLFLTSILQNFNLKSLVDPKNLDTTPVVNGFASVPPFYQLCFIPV

CC(C)=NOC[C@@H](O)COCc1ccco1
AC50 (Cytochrome P450 2D6): inconclusive

CC1(C)CCN2CCC(C)(C)c3c(O)ccc1c32
AC50 (INS1): 7.71 µM (active)
EC50 (Troponin, cardiac muscle): 3.33 µM (active)

O=c1oc2c(-c3cccc(F)c3)cc(O)cc2s1
AC50 [1]: 3.74 µM (active)

COC(=O)C1=C(C)N(Cc2ccccc2)C(NCCc2ccccn2)=N[C@H]1c1cccc(F)c1
IC50 [2]: 4.79 µM (active)
EC50 [3]: 5.96 µM (active)
IC50 [4]: 2.67 µM (active)
IC50 (Protein skinhead-1): > 100 µM (inactive)

Cc1ccc(N2C(=O)C3C(C(=O)c4ccccc4)=NN(c4ccccc4)C3C2=O)cc1 (stereo not given)
EC50 [5]: 22.2 µM (active)
EC50 (Troponin, cardiac muscle): 17.9 µM (inactive)

Clc1ccc(OCCNCCc2ccccc2)cc1
IC50 (cells [6]): > 29.9 µM (inactive)
IC50 [7]: 9.59 µM (active)
EC50 (cells [8]): 21.9 µM (inactive)
EC50 [3]: 4.73 µM (active)
EC50 [9]: 3.81 µM (active)

N#Cc1cccc(-c2nc3cnc(Oc4cccc(Cl)c4)nc3n(C3CC3)c2=O)c1
AC50 (Cytochrome P450 3A4 [10]): inconclusive

Nc1nc(Nc2cccc(F)c2)nc2ccccc12
IC50 (cells [6]): > 29.9 µM (inactive)
EC50 [11]: 7.18 µM (active)
IC50 [7]: 1.65 µM (active)
AC50 [1]: 4.73 µM (active)
EC50 (cells [8]): > 29.9 µM (inactive)
EC50 [9]: 0.364 µM (active)
EC50 [12]: 0.853 µM (active)

N[C@@H](CCC(=O)O)C(=O)O [GLUTAMIC ACID]
AC50 (Cytochrome P450 2C19): inactive
AC50 (Cytochrome P450 2D6): inactive
AC50 (Cytochrome P450 2C9): inactive
AC50 (Cytochrome P450 3A4 [10]): inactive
AC50 (Cytochrome P450 1A2): 39.8 µM (inconclusive)

c1ccc(NC(=NCc2ccco2)c2ccccc2)cc1
AC50 (Escherichia coli [13]): 47.6 µM (active)
EC50 [14]: 18.8 µM (active)

OC(CNCCC(c1ccccc1)c1ccccc1)COc1ccccc1 (stereo not given)
EC50 [15]: > 92.5 µM (inactive)
EC50 [16]: > 92.5 µM (inactive)
EC50 (Mu-type opioid receptor): > 92.5 µM (inactive)

O=C(N/N=C/C1=C(N2CCOCC2)C(=C\c2ccccc2)/CC1)Nc1ccccc1
AC50 (Escherichia coli [13]): 67.6 µM (active)

CO[C@@H]1COC(=O)[C@@H](C)NC(=O)C/C=C\[C@@H](C)[C@H](NS(=O)(=O)c2ccc(C)cc2)COC(=O)[C@H](C)NC(=O)C/C=C\[C@H]1C
AC50 (Cytochrome P450 2D6): inconclusive
AC50 (Cytochrome P450 3A4 [17]): 5.01 µM (inconclusive)

CCc1n[nH]c(CCN)n1
EC50 [3]: 3.76 µM (active)

O=[N+]([O-])c1ccc(CSc2ncnc3c2ncn3[C@@H]2O[C@@H](CO)[C@@H](O)[C@H]2O)cc1
AC50 (Cytochrome P450 3A4 [10]): inconclusive

CCOC(=O)N1CCC(NC(=O)c2oc3c(c2C)-c2n[nH]cc2CC3)CC1
AC50 (Escherichia coli [13]): 67 µM (active)
AC50 (Escherichia coli [18]): 18.4 µM (active)
